{"source": "patent US10745393B2", "about": "“Small molecular probes, processes and use thereof” (JAWAHARLAL NEHRU CENTRE FOR ADVANCED SCIENTIFIC RESEARCH, priority 2014, dated 2020)", "key": {"DNA": {"tested_on": "DNA", "assay": "Comparison of DNA dyes: sequence selectivity and fluorescence of free/DNA bound dye", "type": "binding"}, "[1]": {"target": "ThT/Aβ42 aggregate complex (Homo sapiens, UniProt P05067)", "sequence (P05067 672-713 limits assumed, one chain of several)": "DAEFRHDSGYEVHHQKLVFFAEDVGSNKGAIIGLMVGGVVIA", "assay": "ThT displacement / FRET assay", "type": "binding", "conditions": "decay at 483 nm, enhancement at 654 nm"}, "(AT)20": {"tested_on": "(AT)20", "assay": "Agarose gel electrophoresis staining of dsDNA band", "type": "binding", "conditions": "3% agarose gel, about 0.6 μg dsDNA, UV-illumination"}, "[2]": {"assay": "Absorption, emission and quantum yield of probes without Aβ42 aggregates", "type": "physicochemical"}, "HepG2 cells": {"tested_on": "HepG2 cells", "assay": "Confocal fluorescence staining of mammalian cells at low probe concentration", "type": "cell-based, human", "conditions": "(FIG. 44 legend 2 μM)"}, "HEK293 cells": {"tested_on": "HEK293 cells", "assay": "DNase I and RNase digestion studies", "type": "cell-based", "conditions": "2 hours", "method": "DNase I is known to degrade nuclear DNA while RNase degrades RNA in the cytoplasm by catalyzing phosphodiester bonds cleavage. HEK293 cells are fixed with chilled methanol for about 1 minute at room temperature and permeabilized with 0.1% Triton X-100 in PBS for about 2×5 minutes. After rinsing with PBS twice, for one set of experiments, cells are treated with probe TC (5 μM) for about 15 min at room temperature in three adjacent wells. A total of about 200 μL PBS (as control experiment), about 100 μg/mL DNase I (Sigma), or about 30 μg/ml DNase-Free RNase (GE) is added into the three adjacent wells and incubated at about 37° C. for about 2 hours. For another set of experiments, instead of treating with probe TC, cells are only treated with about 200 μL PBS (as control experiment), about 100 μg/ml DNase I (Sigma), or about 30 μg/mL DNase-Free RNase (GE) by adding into the three adjacent wells and incubating at about 37° C. for about 2 hours. […] After two more washes in PBS with 0.1% Triton X-100, the cover slips are washed in PBS, rinsed in ddH2O and briefly dipped in 100% ethanol. After a quick dry, cover slips are mounted with 70% glycerol. Images are captured using a Carl Zeiss Laser Scanning Microscope (LSM510 META) using an equal exposure time for control, DNase I, and RNase experiments. Experiments are done in duplicate."}, "d(AATT)5": {"tested_on": "d(AATT)5", "assay": "Absorption / fluorescence response with self-complementary d(AATT)5 duplex", "type": "binding"}, "(D2)mix": {"tested_on": "(D2)mix", "assay": "Agarose gel electrophoresis staining of dsDNA band", "type": "binding", "conditions": "3% agarose gel, about 0.6 μg dsDNA, UV-illumination"}, "(GC)10": {"tested_on": "(GC)10", "assay": "Fluorescence response / quantum yield of probes with dsDNA (GC)10", "type": "binding"}, "[3]": {"conditions": "Table 3, probe of the disclosure"}}, "note": "Entries after “also recorded” stand apart in the source; their conditions may differ. Marks after values point to notes of the source that are not given here."}
{"smiles": "CCN(CC)c1ccc2cc(/C=C/c3sc4ccccc4[n+]3C)c(=O)oc2c1", "note": "[TC, (E)-3-(2-(N-methyl-benzo[d]thiazol-2-yl)vinyl)-7-(diethylamino)-2H-chromen-2-one]", "values": [{"measurement": "Fluorescence maxima DNA bound dye", "setting": "DNA; [3]", "result": 610, "unit": "nm"}, {"measurement": "Fluorescence maxima free dye", "setting": "DNA; [3]", "result": 641, "unit": "nm"}, {"measurement": "Fluorescence qauntum yield (ΦF) DNA bound dye", "setting": "DNA; Table 3, superscript b", "result": "0.36^b"}, {"measurement": "preferential binding affinity, AT-sites versus GC-sites", "setting": "DNA; fluorescence studies with dsDNAs", "result": "towards AT-sites than GC-sites"}, {"measurement": "displacement of ThT from ThT/Aβ42 aggregate complex", "setting": "[1]", "result": "effective displacement of ThT by TC"}, {"measurement": "gel staining of (AT)20 band", "setting": "(AT)20", "result": "strong fluorescence intensity"}, {"measurement": "absorption maximum TC/chloroform", "setting": "[2]; Experiment", "result": 561, "unit": "nm"}, {"measurement": "absorption maximum TC/water", "setting": "[2]; Experiment", "result": 537, "unit": "nm"}, {"measurement": "absorption maximum in absence of Aβ42 aggregates", "setting": "[2]; PBS buffer (10 mM, pH 7.4)", "result": 537, "unit": "nm"}, {"measurement": "emission maximum in absence of Aβ42 aggregates", "setting": "[2]; PBS buffer, very weak fluorescence", "result": 638, "unit": "nm"}, {"measurement": "fluorescence / uptake in HepG2 cells", "setting": "HepG2 cells", "result": "does not show any detectable fluorescence; also recorded: No detectable uptake"}, {"measurement": "fluorescence nuclear staining after DNase I digestion", "setting": "HEK293 cells; DNase I about 100 μg/mL", "result": "almost completely diminished"}, {"measurement": "fluorescence nuclear staining after RNase digestion", "setting": "HEK293 cells; RNase about 30 μg/mL", "result": "does not affect the fluorescence staining"}, {"measurement": "fluorescence enhancement in presence of d(AATT)5", "setting": "d(AATT)5", "result": "~16", "unit": "folds"}, {"measurement": "gel staining of (D2)mix band", "setting": "(D2)mix", "result": "strong fluorescence intensity"}, {"measurement": "ΦF with (GC)10", "setting": "(GC)10; Tris-HCl buffer (100 mM, pH 7.4)", "result": 0.04}, {"measurement": "fluorescence change in presence of (GC)10", "setting": "(GC)10; probe 10 μM", "result": "does not show such fluorescence enhancement"}]}
